Measured values: PubChem BioAssay AID206 (DTP/NCI, 2004)
Where “and” joins values, the source holds several entries; their conditions need not be identical. Equal entries are not always repeated. Results filed as inconclusive are left out.

Test system: nude mice, HT29 intrarenal xenograft, tumor weight T/C
Experiment: NCI In Vivo Anticancer Drug Screen. Data for tumor model HT29;CX-1 Human Adenocarcinoma (MER+) (intrarenal inoculation) in NU/NU Swiss (nude) mice
Conditions: endpoint: mean tumor weight change, higher = larger tumour
Method in brief: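 Compounds were given to mice carrying transplantable tumors; a vehicle-dosed group served as control. The endpoint measured in each group was compared as a T/C quotient.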

[1] = dose: 2.0 mg/kg/injection, schedule: Q01DX010 (sc), vehicle: saline

## COc1cccc2c1C(=O)c1c(O)c3c(c(O)c1C2=O)C[C@@](O)(C(=O)CO)C[C@@H]3OC1CC(N)C(O)C(C)O1 (some centres undefined)
dose: 0.25 mg/kg/injection, schedule: Q01DX010 (ip), vehicle: water
  T/C: -27 % of control
dose: 0.5 mg/kg/injection, schedule: Q01DX010 (sc), vehicle: saline
  T/C: 62 % of control
dose: 1.0 mg/kg/injection, schedule: Q01DX010 (sc), vehicle: saline
  T/C: 30 % of control and 32 % of control
dose: 1.5 mg/kg/injection, schedule: Q01DX010 (sc), vehicle: saline
  T/C: 96 % of control
dose: 2.0 mg/kg/injection, schedule: Q01DX010 (ip), vehicle: water
  T/C: -20 % of control
[1]
  T/C: 15 % of control and 29 % of control
dose: 3.0 mg/kg/injection, schedule: Q01DX010 (sc), vehicle: saline
  T/C: 109 % of control
dose: 4.0 mg/kg/injection, schedule: Q01DX010 (sc), vehicle: saline
  T/C: 4 % of control and 27 % of control
dose: 6.0 mg/kg/injection, schedule: Q01DX010 (sc), vehicle: saline
  T/C: 102 % of control
dose: 7.5 mg/kg/injection, schedule: Q04DX004 (sc), vehicle: saline
  T/C: 62 % of control

## C=CC(=O)N1CN(C(=O)C=C)CN(C(=O)C=C)C1
dose: 6.25 mg/kg/injection, schedule: Q01DX010 (sc), vehicle: saline with Tween-80
  T/C: 183 % of control
dose: 12.5 mg/kg/injection, schedule: Q01DX010 (sc), vehicle: saline with Tween-80
  T/C: 45 % of control

## Cc1c2cc[n+](C)cc2c(C)c2c1[nH]c1ccc(O)cc12
dose: 1.25 mg/kg/injection, schedule: Q04DX004 (sc), vehicle: water
  T/C: 360 % of control
dose: 2.5 mg/kg/injection, schedule: Q04DX004 (sc), vehicle: water
  T/C: 120 % of control

## COc1ccc(CC2C(=O)NC(C)C(=O)N(C)C3C(=O)N(C)C(Cc4ccc(O)c(c4)Oc4ccc(cc4)C3O)C(=O)NC(C)C(=O)NC(C)C(=O)N2C)cc1 (centres undefined)
dose: 0.25 mg/kg/injection, schedule: Q01DX010 (sc), vehicle: saline with Tween-80
  T/C: 94 % of control

## CC(=O)OCC1OC(OC(C)=O)C(NC(=O)N(CCCl)N=O)C(OC(C)=O)C1OC(C)=O (centres undefined)
dose: 3.0 mg/kg/injection, schedule: Q04DX004 (sc), vehicle: Klucel (hydroxypropylcellulose) (HPC)
  T/C: 30 % of control
dose: 6.0 mg/kg/injection, schedule: Q04DX004 (sc), vehicle: Klucel (hydroxypropylcellulose) (HPC)
  T/C: 40 % of control
dose: 12.0 mg/kg/injection, schedule: Q04DX004 (sc), vehicle: Klucel (hydroxypropylcellulose) (HPC)
  T/C: 60 % of control
dose: 24.0 mg/kg/injection, schedule: Q04DX004 (sc), vehicle: Klucel (hydroxypropylcellulose) (HPC)
  T/C: 96 % of control

## O=C(NO)c1ccc(O)c(O)c1
dose: 200.0 mg/kg/injection, schedule: Q04DX004 (sc), vehicle: water
  T/C: 52 % of control
dose: 400.0 mg/kg/injection, schedule: Q04DX004 (sc), vehicle: water
  T/C: 86 % of control

## Cc1cc(N/N=C/c2ccccn2)nc2ccccc12
dose: 37.5 mg/kg/injection, schedule: Q04DX004 (sc), vehicle: Klucel (hydroxypropylcellulose) (HPC)
  T/C: 101 % of control
dose: 75.0 mg/kg/injection, schedule: Q04DX004 (sc), vehicle: Klucel (hydroxypropylcellulose) (HPC)
  T/C: 107 % of control
dose: 150.0 mg/kg/injection, schedule: Q04DX004 (sc), vehicle: Klucel (hydroxypropylcellulose) (HPC)
  T/C: 123 % of control
dose: 300.0 mg/kg/injection, schedule: Q04DX004 (sc), vehicle: Klucel (hydroxypropylcellulose) (HPC)
  T/C: 90 % of control

## CCOC(=O)c1cn(C)c2c1C(O)=C(C(=O)OC)CC(=O)N2
dose: 225.0 mg/kg/injection, schedule: Q04DX004 (sc), vehicle: saline with Tween-80
  T/C: 95 % of control
dose: 450.0 mg/kg/injection, schedule: Q04DX004 (sc), vehicle: saline with Tween-80
  T/C: 52 % of control
dose: 1800.0 mg/kg/injection, schedule: Q04DX004 (sc), vehicle: saline with Tween-80
  T/C: 62 % of control

## CCN(CC)CCC(=O)c1ccccc1
dose: 50.0 mg/kg/injection, schedule: Q04DX004 (sc), vehicle: saline with Tween-80
  T/C: 65 % of control
dose: 100.0 mg/kg/injection, schedule: Q04DX004 (sc), vehicle: saline with Tween-80
  T/C: 60 % of control
dose: 200.0 mg/kg/injection, schedule: Q04DX004 (sc), vehicle: saline with Tween-80
  T/C: 50 % of control
dose: 400.0 mg/kg/injection, schedule: Q04DX004 (sc), vehicle: saline with Tween-80
  T/C: 77 % of control

## NC(=O)c1csc(C2OC(CO)C(O)C2O)n1 (centres undefined)
dose: 125.0 mg/kg/injection, schedule: Q04DX004 (sc), vehicle: water
  T/C: 119 % of control

## Nc1nc([Se])c2ncn(C3OC(CO)C(O)C3O)c2n1 (centres undefined)
[1]
  T/C: 98 % of control
dose: 8.0 mg/kg/injection, schedule: Q01DX010 (sc), vehicle: saline
  T/C: 242 % of control
dose: 16.0 mg/kg/injection, schedule: Q01DX010 (sc), vehicle: saline
  T/C: 202 % of control

## CN(C=O)C(C(=O)Nc1cccc2c(OC(=O)C(N(C)C=O)(N(C)C=O)N(C)C=O)c(N=Nc3ccc(S(=O)(=O)Nc4nccs4)cc3)cc(N=Nc3ccc(S(=O)(=O)Nc4nccs4)cc3)c12)(N(C)C=O)N(C)C=O (tested in a mixture with another compound)
dose: 300.0 mg/kg/injection, schedule: Q04DX004 (sc), vehicle: saline with Tween-80
  T/C: 91 % of control
dose: 600.0 mg/kg/injection, schedule: Q04DX004 (sc), vehicle: saline with Tween-80
  T/C: 103 % of control
dose: 1200.0 mg/kg/injection, schedule: Q04DX004 (sc), vehicle: saline with Tween-80
  T/C: 80 % of control
